Patent US8334259B2, “Method of treating endothelial dysfunction comprising administration of a thrombin peptide derivative” (The Board of Regents, The University of Texas System, priority 2006, dated 2012)

Experiments:
23C53 = assay: Binding of biotin-conjugated thrombin to complementary peptide 23C53
AC-23 = assay: Binding of biotin-conjugated thrombin to complementary peptide AC-23
Description: Addition of TP508 inhibited specific binding of biotin-labeled thrombin to AC-23. Up to 60% of the binding of thrombin to AC-23 can be inhibited by the addition of TP508. Therefore, both thrombin and TP508 bind to the complementary peptide, AC-23. […] Antibodies to AC-23 and other complementary peptides of thrombin can therefore be used to characterize the thrombin binding site that is activated by TP508, and can be used in the therapeutic and other methods described herein.

ARG1 = ARG1 expression in HAE cells treated with TNFα; assay type: cell-based, human
Description: Under normoxic conditions, TP508 increased phosphorylated eNOS (p-eNOS) and eNOS in cells with and without TNFα/hypoxic treatment.

eNOS mRNA [1] = assay: RT-PCR of eNOS mRNA in HCAE cells; assay type: cell-based, human; conditions: 6 h, 25 or 30 cycles
Experimental: (§1) Human coronary artery endothelial cells (HCAE cells, Cambrex Bio Science Walkersville, Walkersville, Md.) were cultured in 5% CO2 at 37° C. in endothelial cell growth medium (EGM) supplemented with 2% fetal bovine serum and Single Quot supplements (Clonetics, San Diego, Calif.; containing epidermal growth factor, hydrocortisone, vascular endothelial growth factor, fibroblast growth factor, insulin growth factor, ascorbic acid, heparin, gentamycin, and amphotericin B). Cells were used between passages 4 and 6 for these studies. HCAE cells were plated at a density of 50,000 cells per well in 12-well plates and were grown for 3 days to reach confluency. Two-day post-confluent cells were treated with TNFα or TP508. Cells were then incubated in normoxic or 1% hypoxic conditions for the indicated times. In some experiments, cells were pretreated with TP508 for 1 h before TNFα stimulation. For RNA extraction, HCAE cells were cultured in 6-well plates.
Total RNA was isolated using an Ambion isolation kit as described by the manufacturer.
RT-PCR for eNOS was performed by Ready-to-Go RT-PCR Beads (Amersham Biosciences) using a two-step protocol. First, cDNA synthesis was achieved by incubating 1 μg total RNA with 1 μg random hexamers (pdN6) as primers and M.-MuLV reverse transcriptase at 42° C. for 60 min. […]

eNOS mRNA [2] = assay: SYBR Green real-time PCR of eNOS mRNA in HCAE cells; assay type: cell-based, human; conditions: 24 h
Experimental: as §1
Real time quantitative PCR was used to determine relative expression of eNOS mRNA in endothelial cells treated with TP508 or TNF. […] Quantitative PCR amplifications were done using 2 μl of cDNA in a total volume of 25 μl using SYBR green probes in the SYBR Green PCR Master Mix (ABI). […] The reverse-transcribed cDNA sample cycle threshold values were determined from triplicate samples and normalized to the 18S “housekeeping” gene.

eNOS [3] = assay: Western blot of eNOS expression and phosphorylation (S1177) in HCAE cells; assay type: cell-based, human; conditions: 24 h
Experimental: as §1
The cell lysates were subjected to SDS-PAGE in a 10% polyacrylamide gel and transferred to a nitrocellulose membrane (0.2-μm, Invitrogen). After blocking with 5% milk, the membrane was incubated overnight at 4° C. with primary antibodies against phospho-eNOS (Ser 1177) and eNOS (Cell Signaling Technology, Beverly, Mass.), human type-1 arginase (clone 9C5) (Cell Sciences, Canton, Mass.), or GAPDH (Santa Cruz Biotechnology, Santa Cruz, Calif.). […]

arginase 1 (ARG1) = assay: Western blot of arginase 1 expression in HCAE cells with or without TNFα; assay type: cell-based, human; conditions: TNFα 24 h, normoxic
Experimental: Human coronary artery endothelial cells (HCAE cells, Cambrex Bio Science Walkersville, Walkersville, Md.) were cultured in 5% CO2 at 37° C. in endothelial cell growth medium (EGM) supplemented with 2% fetal bovine serum and Single Quot supplements (Clonetics, San Diego, Calif.; containing epidermal growth factor, hydrocortisone, vascular endothelial growth factor, fibroblast growth factor, insulin growth factor, ascorbic acid, heparin, gentamycin, and amphotericin B). Cells were used between passages 4 and 6 for these studies. HCAE cells were plated at a density of 50,000 cells per well in 12-well plates and were grown for 3 days to reach confluency. […] Cells were then incubated in normoxic or 1% hypoxic conditions for the indicated times.
The cell lysates were subjected to SDS-PAGE in a 10% polyacrylamide gel and transferred to a nitrocellulose membrane (0.2-μm, Invitrogen). After blocking with 5% milk, the membrane was incubated overnight at 4° C. with primary antibodies against phospho-eNOS (Ser 1177) and eNOS (Cell Signaling Technology, Beverly, Mass.), human type-1 arginase (clone 9C5) (Cell Sciences, Canton, Mass.), or GAPDH (Santa Cruz Biotechnology, Santa Cruz, Calif.). HRP-conjugated anti-mouse or anti-rabbit antibodies (Cell Signaling Technology) were used as secondary antibodies (HRP, horseradish peroxidase). […]

[4] = tested on: Human coronary artery endothelial (HCAE) cells; assay: Transmembrane cell migration assay toward human VEGF (BD FluoroBlok inserts); assay type: cell-based; conditions: VEGF 10 ng/ml, hypoxic, 22 h
Experimental: The ability of a test substance to attract endothelial cells and stimulate their migration through pores in the membrane is one of several tests to determine the angiogenic potential of test substances. […] Prior to migration assay, cells were cultured with or without TP508 to determine the effect of TP508 on endothelial migration. Human coronary artery endothelial (HCAE) cells (Lonza Walkersville, Inc., Walkersville, Md.) were cultured in the absence (control) or presence of TP508 [50 μg/ml] (“TP pret” in FIG. 9A and FIG. 9B) for 24 hours. Transmembrane cell migration assays were performed using BD FluoroBlok inserts (BD Bioscience, Bedford, Mass.) as described by the vendor. Control or TP508 pretreated cells were added into the top of the inserts. […] (V) or medium alone (C) was added to the lower chamber of the insert plate as a chemoattractant. Endothelial migration was performed in normoxic or 1% hypoxic conditions. After a 22-hour incubation, cells were labeled post-migration with Calcein AM and measured by detecting the fluorescence of the cells that migrated to the underside of the insert membrane.

[5] = tested on: HLME (Human Lung Microvascular Endothelial Cells); assay: Survival of serum-deprived HLME cells; assay type: cell-based
VEGF mRNA = assay: Real-time PCR of VEGF mRNA in HCMVE cells; assay type: cell-based, human; conditions: VEGF 10 ng/ml, 24 h
Description: Real-time PCR analyses show changes in steady-state levels of VEGF mRNA after treatment. Data from one experiment performed in triplicate are shown in FIG. 11 as mean±SD. *p<0.01 compared to control (C) cells in normoxia. ^#p<0.01 compared to control (C) cells in hypoxia.

eNOS [6] = assay: Human VEGF-induced eNOS activation (phosphorylation at S1177) in HCAE cells, Western blot; assay type: cell-based
Experimental: Human VEGF-induced eNOS activation was determined by Western blotting using an antibody recognizing the activated form of eNOS (phosphorylated at […]) (Cell Signaling, Danvers, Mass.). The membrane was re-probed with anti-GAPDH (glyceraldehyde-3-phosphate dehydrogenase) antibody to show equal protein loading. A bar graph representing densitometric analysis of the activated eNOS Western blot after different treatments is shown in FIG. 8.

[7] = tested on: Human coronary artery endothelial (HCAE) cells; assay: Endothelial cell invasion assay through Matrigel toward human VEGF; assay type: cell-based; conditions: cells not pretreated, VEGF 10 ng/ml, normoxic or hypoxic
Experimental: Invasion of endothelial cells through a Matrigel matrix is one of many assays used to determine the angiogenic potential of test substances and is thought to be more predictive of angiogenesis in vivo than a simple chemotactic assay through open membrane pores since the cells must degrade and invade the matrix to move into and through the pores in the membrane. […] Human coronary artery endothelial (HCAE) cells (Lonza Walkersville, Inc., Walkersville, Md.) were cultured in the absence (control) or presence of TP508 [50 μg/ml] (TP pret) for 24 hours. Endothelial cell invasion assays were performed using BD BioCoat™ Angiogenesis System (BD Bioscience, Bedford, Mass.) which utilizes FluoroBlok inserts coated with BD Matrigel Matrix (BD Bioscience, Bedford, Mass.). Control or TP508 pretreated cells were added into the top of the inserts. […] After 22 hours of incubation, cells were labeled post-invasion with Calcein AM and measured by detecting the fluorescence of the cells that migrated to the underside of insert membrane.

Sequence of 23C53 (as listed by the source): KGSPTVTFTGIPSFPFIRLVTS
Sequence of AC-23 (as listed by the source): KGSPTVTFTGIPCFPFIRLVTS

In the case of thrombin, the “Specific binding of thrombin to 23C53” value (23C53) is reported as “bind specifically” and the “Specific binding of thrombin to AC23” value (AC-23) is reported as “bind specifically”.

For TNFα, the “Expression of ARG1” value (ARG1) was “increasing expression”, the “eNOS mRNA expression (RT-PCR)” value (eNOS mRNA [1]) was “drastically decreased” and the “Decrease of eNOS mRNA level” value (eNOS mRNA [2]) was ~80%. For the same substance, the “Reduction of eNOS expression relative to normoxic controls” value (eNOS [3]) was 65% and the “ARG1 expression relative to control cultures” value (arginase 1 (ARG1)) was “significant increase”.

VEGF was tested, and the “Endothelial cell migration relative to media control cells” value [4] was ~150%, the Cell survival [5] was “increased survival at lower levels” and the “VEGF mRNA in hypoxic cells” value (VEGF mRNA; 1% hypoxic) was “no effect, or decreased”. The “Decrease of VEGF mRNA expression compared to control cells” value (VEGF mRNA; normoxic) was 2 fold, the “Decrease of VEGF-stimulated eNOS phosphorylation in hypoxic compared to normoxic cells” value (eNOS [6]; hypoxic (1% O2, 24 h) HCAE cells, 1 min VEGF) was ~4 fold and the “VEGF-induced phosphorylation of eNOS on serine 1177, maximum” value (eNOS [6]; normoxic HCAE cells, VEGF 50 ng/ml, 1 minute) was 2 fold. The “Invasion of control endothelial cells through Matrigel toward human VEGF” value [7] was “not stimulated”.
